In brackets after ≈: the same amount, converted by molar mass. Where two headings read alike, the source gives them in different places.
Tests used:
[1] = tested on: Herpes simplex type 1 (HSV-1) strain E-377
[2] = tested on: Herpes simplex type 2 (HSV-2) strain MS
[3] = tested on: Herpes simplex type 2 (HSV-2) strain MS; assay: microbe, parasite or virus in culture; conditions: Human alphaherpesvirus 2, Vero, read-out: ID50: minimum drug concentration that inhibited the CPE by 50%
[4] = tested on: Herpes simplex type 1 (HSV-1) strain E-377; assay: microbe, parasite or virus in culture; conditions: Human alphaherpesvirus 1, Vero, read-out: ID50: minimum drug concentration that inhibited the CPE by 50%
[5] = tested on: African green monkey kidney (Vero); assay: Drug cytotoxicity in Vero host cells (cytotoxicity controls of the CPE-inhibition assay); conditions: Vero, HSV-2 (MS) experiment
Experimental: (§1) The challenge viruses were propagated and assayed in cells that were pregrown as monolayer cultures in plastic tissue culture flasks and 96-well plates, using cell culture media appropriate for the host cell cultures. The following viruses and host cell cultures were employed:
(§2) On the day of use, a weighed sample of each compound to be evaluated was dissolved and diluted in serial 10^0.5 dilutions in the culture medium appropriate for each virus-host cell system.
(§3) Mammalian cells were pregrown as monolayers in wells of COSTAR 96-well tissue culture plates using suitable cell culture media. Stock viruses were pretitered according to the method of Reed and Muench (Amer. J. Hyg. 27:493-497, 1938) and diluted in cell culture medium to yield 32 CCID50 (cell culture infectious dose, 50%) units per 0.1 ml. Antiviral assays were designed to test seven concentrations of each compound, from cytotoxic to noncytotoxic levels, in triplicate against each of the challenge viruses in microtiter plate wells containing suitable cell monolayers. To each of the replicate cell cultures were added 0.1 ml of the test drug solution and 0.1 ml of virus suspension. Cell controls containing medium alone, virus controls containing medium and virus, and drug cytotoxicity controls containing medium and each drug concentration were run simultaneously with the test samples assayed in each experiment. […] The cell monolayers were examined microscopically for virus-induced CPE and for drug cytotoxicity.
(§4) Antiviral activity was determined by calculating the degree of inhibition of virus-induced CPE in drug-treated, virus-infected cell cultures by means of a virus rating (VR). The VR is a standard weighted measurement of antiviral activity taking into account both the degree of CPE inhibition and drug cytotoxicity, and is determined by a modification of the method of Ehrlich et al. (Ann. N.Y. Acad. Sci. 130 : 5-16, 1965) as described below. CPE was graded for each individual culture in each microtiter plate well according to the following scale:
(§5) ^3 MTC=The minimum drug concentration (ug/ml) causing any cytotoxicity.

[6] = as above; conditions: african green monkey, vero cells
Experimental: as §1, §2, §3, §4, §5

[7] = tested on: Human influenza type A (IV-A) strain PR/8/34 (HINI); assay: CPE-inhibition assay against human influenza virus type A in MDCK cells; type: cell-based
in vitro = conditions: dog, mdck
Experimental: as §1, §2
Mammalian cells were pregrown as monolayers in wells of COSTAR 96-well tissue culture plates using suitable cell culture media. Stock viruses were pretitered according to the method of Reed and Muench (Amer. J. Hyg. 27:493-497, 1938) and diluted in cell culture medium to yield 32 CCID50 (cell culture infectious dose, 50%) units per 0.1 ml. Antiviral assays were designed to test seven concentrations of each compound, from cytotoxic to noncytotoxic levels, in triplicate against each of the challenge viruses in microtiter plate wells containing suitable cell monolayers. To each of the replicate cell cultures were added 0.1 ml of the test drug solution and 0.1 ml of virus suspension. […]
Antiviral activity was determined by calculating the degree of inhibition of virus-induced CPE in drug-treated, virus-infected cell cultures by means of a virus rating (VR). […]

Compound	TI (Therapeutic Index): minimum cytotoxic drug concentration divided by ID50 ([1]; HSV-1 E-377, Vero)	VR (Virus Rating) ([1]; HSV-1 E-377, Vero, VR 1.0 definite activity, 0.5-0.9 marginal to moderate, <0.5 usually none)	TI (Therapeutic Index): minimum cytotoxic drug concentration divided by ID50 ([2]; HSV-2 MS, Vero)	VR (Virus Rating) ([2]; HSV-2 MS, Vero, VR 1.0 definite activity, 0.5-0.9 marginal to moderate, <0.5 usually none)	IC50 [3]	IC50 [4]	MTC: minimum drug concentration causing any cytotoxicity [5]	MCC [6]	VR (Virus Rating) [7]	MCC (in vitro)	VR (Virus Rating) [1]	VR (Virus Rating) [2]
Nc1nc2c(ncn2C2CC2CCO)c(=O)[nH]1 (stereo not drawn) [Example 2E, 9-[2-(2'-hydroxyethyl)cyclopropyl]guanine]	> 10.4	3.7	> 4.1	2.3	77.7 µg/mL (≈ 330 µM)	31.6 µg/mL (≈ 134 µM)	> 320 µg/mL	> 320 µg/mL	–	–	–	–
Nc1nc2c(ncn2C2CC2C(O)CO)c(=O)[nH]1 (stereo not drawn) [Example 3G]	3.2	–	2.0	–	159 µg/mL (≈ 633 µM)	101 µg/mL (≈ 402 µM)	> 320 µg/mL	> 320 µg/mL	0.6	> 320 µg/mL	1.8	1.3

Source: patent US4988703A, “Carbocyclic nucleoside analogs with antiviral activity” (Abbott Laboratories, priority 1989, dated 1991)
